According to ChEMBL document CHEMBL4765457, “Targeting dual tolerant regions of binding pocket: Discovery of novel morpholine-substituted diarylpyrimidines as potent HIV-1 NNRTIs with significantly improved water solubility” (Eur J Med Chem, 2020):

Legend:
[1] = tested on: Human immunodeficiency virus 1; test: Antiviral activity against HIV1 harboring RT F227L/V106Amutant infected in human MT4 cells assessed as inhibition of virus-induced cytopathic effect incubated for 5 days by MTT assay; format: functional, organism-based; settings: Human immunodeficiency virus 1, MT4, 120 h
[2] = Resistance index, ratio of EC50 for antiviral activity against HIV1 expressing RT L100I mutant infected in human MT4 cells to EC50 for antiviral activity against HIV1 3B infected in human MT4 cells; format: functional
[3] = Resistance index, ratio of EC50 for antiviral activity against HIV1 expressing RT K103N mutant infected in human MT4 cells to EC50 for antiviral activity against HIV1 3B infected in human MT4 cells; format: functional
[4] = Resistance index, ratio of EC50 for antiviral activity against HIV1 expressing RT Y181C mutant infected in human MT4 cells to EC50 for antiviral activity against HIV1 3B infected in human MT4 cells; format: functional
[5] = Resistance index, ratio of EC50 for antiviral activity against HIV1 expressing RT Y188L mutant infected in human MT4 cells to EC50 for antiviral activity against HIV1 3B infected in human MT4 cells; format: functional
[6] = Resistance index, ratio of EC50 for antiviral activity against HIV1 expressing RT E138K mutant infected in human MT4 cells to EC50 for antiviral activity against HIV1 3B infected in human MT4 cells; format: functional
[7] = Resistance index, ratio of EC50 for antiviral activity against HIV1 expressing RT F227L/V106A mutant infected in human MT4 cells to EC50 for antiviral activity against HIV1 3B infected in human MT4 cells; format: functional
[8] = tested on: Human immunodeficiency virus 1; test: Antiviral activity against HIV1 3B infected in human MT4 cells assessed as virus-induced cytopathic effect incubated for 5 days by MTT assay; format: functional, organism-based; settings: Human immunodeficiency virus 1, 3B, MT4, 120 h
[9] = tested on: Human immunodeficiency virus 1; test: Antiviral activity against HIV1 RES056 infected in human MT4 cells assessed as inhibition of virus-induced cytopathic effect incubated for 5 days by MTT assay; format: functional, organism-based; settings: Human immunodeficiency virus 1, RES056, MT4, 120 h
[10] = Cytotoxicity against human MT4 cells assessed as reduction in cell viability incubated for 5 days by MTT assay; format: cell-based; settings: time 5 day
[11] = Selectivity index, ratio of CC50 for human MT4 cells to EC50 for antiviral activity against HIV1 3B infected in human MT4 cells; format: toxicity, cell-based; settings: read-out: Ratio CC50/EC50
[12] = Selectivity index, ratio of CC50 for human MT4 cells to EC50 for antiviral activity against HIV1 RES056 infected in human MT4 cells; format: toxicity, cell-based; settings: read-out: Ratio CC50/EC50
[13] = tested on: Human immunodeficiency virus 1; test: Antiviral activity against HIV1 harboring RT L100I mutant infected in human MT4 cells assessed as inhibition of virus-induced cytopathic effect incubated for 5 days by MTT assay; format: functional, organism-based; settings: Human immunodeficiency virus 1, MT4, 120 h
[14] = tested on: Human immunodeficiency virus 1; test: Antiviral activity against HIV1 harboring RT K103N mutant infected in human MT4 cells assessed as inhibition of virus-induced cytopathic effect incubated for 5 days by MTT assay; format: functional, organism-based; settings: Human immunodeficiency virus 1, MT4, 120 h
[15] = tested on: Human immunodeficiency virus 1; test: Antiviral activity against HIV1 harboring RT Y181C mutant infected in human MT4 cells assessed as inhibition of virus-induced cytopathic effect incubated for 5 days by MTT assay; format: functional, organism-based; settings: Human immunodeficiency virus 1, MT4, 120 h
[16] = tested on: Human immunodeficiency virus 1; test: Antiviral activity against HIV1 harboring RT Y188L mutant infected in human MT4 cells assessed as inhibition of virus-induced cytopathic effect incubated for 5 days by MTT assay; format: functional, organism-based; settings: Human immunodeficiency virus 1, MT4, 120 h
[17] = tested on: Human immunodeficiency virus 1; test: Antiviral activity against HIV1 harboring RT E138K mutant infected in human MT4 cells assessed as inhibition of virus-induced cytopathic effect incubated for 5 days by MTT assay; format: functional, organism-based; settings: Human immunodeficiency virus 1, MT4, 120 h

| SMILES | EC50 [1] [µM] | Ratio EC50 [2] | Ratio EC50 [3] | Ratio EC50 [4] | Ratio EC50 [5] | Ratio EC50 [6] | Ratio EC50 [7] | EC50 [8] [µM] | EC50 [9] [µM] | CC50 at 120 h [10] [µM] | selectivity ratio [11] | selectivity ratio [12] | EC50 [13] [µM] | EC50 [14] [µM] | EC50 [15] [µM] | EC50 [16] [µM] | EC50 [17] [µM] |
| --- | --- | --- | --- | --- | --- | --- | --- | --- | --- | --- | --- | --- | --- | --- | --- | --- | --- |
| Cc1cc(C#N)cc(C)c1Oc1nc(NC2CCN(Cc3ccc(S(N)(=O)=O)cc3)CC2)nc2ccsc12 | 0.0042 | 2.4 | 2 | 2.3 | 2.1 | 2 | 3 |  |  |  |  |  |  |  |  |  |  |
| Cc1cc(C#N)cc(C)c1Oc1nc(NC2CCN(CCN3CCOCC3)CC2)nc2ccoc12 |  |  |  |  |  |  |  | 1.1 | > 138 | 138 | 125 | < 1 |  |  |  |  |  |
| Cc1cc(C#N)cc(C)c1Oc1nc(NC2CCN(CCN3CCOCC3)CC2)nc2c1SCC2 |  |  |  |  |  |  |  | 0.114 | > 43 | 43 | 376 | < 1 |  |  |  |  |  |
| Cc1cc(C#N)cc(C)c1Oc1nc(NC2CCN(CCN3CCOCC3)CC2)nc2ccccc12 |  |  |  |  |  |  |  | 0.502 | > 26 | 26 | 52 | < 1 |  |  |  |  |  |
| Cc1cc(C#N)cc(C)c1Oc1ccnc(NC2CCN(CCN3CCOCC3)CC2)n1 |  |  |  |  |  |  |  | 1.12 | > 246 | 246 | 219 | < 1 |  |  |  |  |  |
| Cc1cc(C#N)cc(C)c1Oc1nc(NC2CCN(CC(=O)N3CCOCC3)CC2)nc2c1COC2 |  |  |  |  |  |  |  | 0.149 | > 184 | 184 | 1240 | < 1 |  |  |  |  |  |
| Cc1cc(C#N)cc(C)c1Oc1nc(NC2CCN(CC(=O)N3CCOCC3)CC2)nc2cc(F)ccc12 |  |  |  |  |  |  |  | 0.577 | > 16.4 | 41.1 | 71 | < 2.51 |  |  |  |  |  |
| Cc1cc(C#N)cc(C)c1Oc1nc(NC2CCN(CC(=O)N3CCOCC3)CC2)nc2scnc12 | 35.9 | 107.7 | 26.7 | 21.8 | 86 | 5 | 256.1 | 0.14 | > 129 | 129 | 919 | < 1 | 15.1 | 3.74 | 3.06 | 12.1 | 0.703 |
| Cc1cc(C#N)cc(C)c1Oc1nc(NC2CCN(CC(=O)N3CCOCC3)CC2)nc2ccccc12 |  |  |  |  |  |  |  | 0.597 | > 42.6 | 42.6 | 71 | < 1 |  |  |  |  |  |
| Cc1cc(C#N)cc(C)c1Oc1nc(NC2CCN(CCN3CCOCC3)CC2)nc2c1COC2 |  |  |  |  |  |  |  | 0.366 | > 140 | 140 | 383 | < 1 |  |  |  |  |  |
| COc1cc2nc(NC3CCN(CC(=O)N4CCOCC4)CC3)nc(Oc3c(C)cc(C#N)cc3C)c2cc1OC | 0.974 | >96.8 | 11.4 | >96.8 | >96.8 | >96.8 | 0.4 | 2.18 | > 211 | 211 | 97 | < 1 | > 211 | 24.8 | > 211 | > 211 | > 211 |
| Cc1cc(C#N)cc(C)c1Oc1nc(NC2CCN(CC(=O)N3CCOCC3)CC2)nc2ccoc12 |  |  |  |  |  |  |  | 0.327 | > 125 | 125 | 383 | < 1 |  |  |  |  |  |
| Cc1cc(C#N)cc(C)c1Oc1nc(NC2CCN(CC(=O)N3CCOCC3)CC2)nc2ccsc12 | ≥ 17.9 | 51.4 | 13.7 | 52.4 | 48.8 | 1.7 | >=178.1 | 0.101 | > 41.9 | 41.9 | 416 | < 1 | 5.17 | 1.38 | 5.27 | 4.92 | 0.171 |
| Cc1cc(C#N)cc(C)c1Oc1nc(NC2CCN(CCN3CCOCC3)CC2)nc2c1CCC2 |  |  |  |  |  |  |  | 0.188 | > 49.1 | 49.1 | 261 | < 1 |  |  |  |  |  |
| Cc1cc(C#N)cc(C)c1Oc1ccnc(NC2CCN(CC(=O)N3CCOCC3)CC2)n1 |  |  |  |  |  |  |  | 0.141 | > 143 | 143 | 1020 | < 1 |  |  |  |  |  |
| Cc1cc(C#N)cc(C)c1Oc1nc(NC2CCN(CCN3CCOCC3)CC2)nc2scnc12 |  |  |  |  |  |  |  | 0.291 | > 88.6 | 88.6 | 305 | < 1 |  |  |  |  |  |
| COc1cc2nc(NC3CCN(CCN4CCOCC4)CC3)nc(Oc3c(C)cc(C#N)cc3C)c2cc1OC |  |  |  |  |  |  |  | 1.79 | > 121 | 121 | 68 | < 1 |  |  |  |  |  |
| O=C1Nc2ccc(Cl)cc2[C@@](C#CC2CC2)(C(F)(F)F)O1 [EFAVIRENZ] |  |  |  |  |  |  |  |  |  | > 6.34 |  |  | 0.04 | 0.094 | 0.006 |  |  |
| Cc1ccnc2c1NC(=O)c1cccnc1N2C1CC1 [NEVIRAPINE] | ≥ 5.41 | 6.3 | 31.1 | 40.7 | >=46.9 | 1.2 | >=32.9 |  | > 15 | > 15 | > 92 |  | 1.03 | 5.1 | 6.69 | ≥ 7.7 | 0.191 |
| Cc1cn([C@H]2C[C@H](N=[N+]=[N-])[C@@H](CO)O2)c(=O)[nH]c1=O [ZIDOVUDINE] | 0.009 | 0.3 | 1 | 0.9 | 0.5 | 1.4 | 0.5 | 0.019 | 0.024 | > 7.48 | > 397 | > 311 | 0.006 |  | 0.016 | 0.009 | 0.027 |
